In the Deep4Chem optical property database:

Assay: solvent given as SMILES

COc1nc(Nc2cc3ccc4cccc5ccc(c2)c3c45)nc(OC)n1
emission maximum (in CC#N): 393 nm | emission maximum (in CCCCOCCCC): 393 nm | emission maximum (in CO): 392 nm

O=Cc1ccc(-c2ccc(-c3nc4ccccc4s3)c(O)c2)s1
emission maximum (in CCO): 540 nm | emission maximum (in ClCCl): 535 nm | emission maximum (in O): 557 nm

Cc1ccc(C2=C3C=CC(Nc4ccccc4)=[N+]3[B-](F)(F)n3c(Nc4ccccc4)ccc32)cc1
emission maximum (in CO): 613 nm

CN1C(=CC=Cc2nc3nc4ccccc4nc3s2)C(C)(C)c2ccccc21
emission maximum (in CO): 623 nm

c1ccc(-c2c3c(nc4ccccc24)-c2cc4c(cc2CC3)-c2nc3ccccc3c(-c3ccccc3)c2CC4)cc1
emission maximum (in ClC(Cl)Cl): 387 nm

O=C1Nc2ccccc2/C1=C/C(=O)c1ccccc1
emission maximum (in C1CCCCC1): 374 nm | emission maximum (in C1COCCO1): 396 nm | emission maximum (in CC#N): 398 nm | emission maximum (in CC(C)(C)O): 407 nm | emission maximum (in CC(C)O): 412 nm | emission maximum (in CCCCCC): 374 nm | emission maximum (in CCCCO): 411 nm | emission maximum (in CCOC(C)=O): 394 nm | emission maximum (in CN(C)C=O): 404 nm | emission maximum (in CO): 412 nm | emission maximum (in ClCCl): 398 nm | emission maximum (in O): 424 nm

c1ccc2c(c1)c1ccccc1n2-c1ccc(-c2ccc(-c3ccc(-n4c5ccccc5c5ccccc54)nc3-n3c4ccccc4c4ccccc43)nn2)c(-n2c3ccccc3c3ccccc32)n1
emission maximum (in CC#N): 474.18 nm | emission maximum (in Cc1ccccc1): 400 nm | emission maximum (in ClCCl): 419.62 nm

CCCC1=Cc2nc1ccc1[nH]c(cc1CCC)c1nc(c(N)cc3[nH]c2cc3CCC)C(CCC)=C1
emission maximum (in Cc1ccccc1): 729 nm

Cc1ccc2oc(-c3cc4cc(C)ccc4oc3=O)cc2c1
emission maximum (in CC#N): 445 nm | emission maximum (in CCOC(C)=O): 436 nm | emission maximum (in CS(C)=O): 448 nm | emission maximum (in Cc1ccccc1): 436 nm | emission maximum (in O): 498 nm

N#Cc1c(-n2c3ccccc3c3ccccc32)c(C#N)c(-n2c3ccccc3c3ccccc32)c(-n2c3ccccc3c3ccccc32)c1-n1c2ccccc2c2ccccc21
emission maximum (in Cc1ccccc1): 507 nm

CN(C)c1ccc(-n2c(-c3ccc(C#N)cc3)nc3ccccc32)cc1
emission maximum (in CC#N): 586 nm

Nc1cccc2c1ccc1[n+]2[B-](F)(F)n2c-1cc1c3ccccc3c3ccccc3c12
emission maximum (in ClCCl): 580 nm

CCCCCCN1C(=O)c2cccc3cc(/N=C\c4nc5ccccc5s4)cc(c23)C1=O
emission maximum (in ClC(Cl)Cl): 495 nm

CCOC(=O)C1=C(C(=O)OCC)C2(c3ccccc3-c3ccccc32)[C@@H](c2ccc([N+](=O)[O-])cc2)C=C2c3cc(OC)c(OC)cc3CCN21
emission maximum (in ClCCl): 430 nm

COc1ccccc1C1=[N+]2C(=C(c3ccccc3)c3c4c(c(-c5ccccc5OC)n3[B-]2(F)F)C2C=CC4CC2)C2=C1C1C=CC2CC1 (configuration not stated)
emission maximum (in ClCCl): 587 nm

Cc1cc(=O)oc2c3c4c(cc12)CCCN4CCC3
emission maximum (in C1CCCCC1): 407 nm | emission maximum (in CC#N): 450 nm | emission maximum (in CCO): 473 nm | emission maximum (in O): 489 nm

N#CC(C#N)=Cc1nc2ccc(C#Cc3ccc(N(c4ccccc4)c4ccccc4)cc3)cc2s1
emission maximum (in Cc1ccccc1): 617 nm

CCn1c2ccccc2c2cc(-c3cc(-c4ccc5c(c4)c4ccccc4n5CC)nc(-c4ccc(OC)cc4)n3)ccc21
emission maximum (in C1CCOC1): 385 nm | emission maximum (in CCOC(C)=O): 384 nm | emission maximum (in CN(C)C=O): 414 nm | emission maximum (in Cc1ccccc1): 379 nm | emission maximum (in ClCCl): 404 nm

N#Cc1ccc2cc(C#N)c3ccc4ccccc4c3c2c1
emission maximum (in ClC(Cl)Cl): 420 nm
